Measurements published in article PMC3215401 (Biosensors & bioelectronics, 2011).

Tests used:
Type in all cases: cell-based, human
[1] = target: PPARγ LBD, sensor 94_1GS_PPARγ_1GS_403 (UniProt P37231+P9WHJ3, V318L)
[2] = target: PPARγ LBD, sensor 110PPARγ_3GS_403 (UniProt P37231+P9WHJ3, V318L)
[3] = target: PPARγ LBD, sensor 100PPARγ383 (UniProt P37231+P9WHJ3, V318L)
[4] = target: PPARγ LBD, sensor 110PPARγ393 (UniProt P37231+P9WHJ3, V318L)
[5] = target: PPARγ LBD, sensor 110PPARγ383 (UniProt P37231+P9WHJ3, V318L)
[6] = target: PPARγ LBD, sensor 110PPARγ_3GS_383 (UniProt P37231+P9WHJ3, V318L)
[7] = target: PPARγ LBD, sensor 94PPARγ403 (UniProt P37231+P9WHJ3, V318L)

Compound | effect on cell growth [1] | EC50 [2] | effect on cell growth [3] | effect on cell growth [4] | EC50 [5] | effect on cell growth [5] | EC50 [1] [nM] | effect on cell growth [6] | effect on cell growth [7] | IC50 ([5]; read-out: IC50 for antagonism) [nM]
CCCCC/C=C/C=C1/C(=O)C=C[C@@H]1C/C=C\CCCC(=O)O [15D-PGJ2, 15-deoxy-Δ^12,14-Prostaglandin J2] | strongest observed response | could not be calculated | significant response | almost no effect | could not be calculated | didn't induce a significant cell growth signal | – | – | – | –
C[C@]12CC[C@@H]3c4ccc(O)cc4CC[C@H]3[C@@H]1CC[C@@H]2O [E2, 17β-estradiol] | – | – | – | – | – | no significant effect | – | – | – | –
O=C(Nc1ccccc1)c1cc([N+](=O)[O-])ccc1Cl [GW9662] | – | 1100 ± 200 nM | inhibitory effect | increased cell growth substantially | – | inhibited cell growth | 500 ± 100 | weak positive response | strong positive responses | 1800 ± 1200
